Active and inactive are the calls of the source. No rule for the calls is given here.

Drawing on PubChem BioAssay AID1259407 (Chemical Carcinogenesis Research Information System (CCRIS), 2018), this text covers mutagenic call for seven molecules.

The data set has as its system CCRIS mutagenicity, Ames/micronucleus/aberration tests. The data set is described as follows: CCRIS mutagenicity studies.
The mark [1] stands for this setting: Test System: AMES SALMONELLA TYPHIMURIUM, Strain/Indicator: TA98, Metabolic Activation: NONE, Method: PREINCUBATION
[2] abbreviates: Test System: AMES SALMONELLA TYPHIMURIUM, Strain/Indicator: TA100, Metabolic Activation: NONE, Method: PREINCUBATION
The mark [3] stands for this setting: Test System: AMES SALMONELLA TYPHIMURIUM, Strain/Indicator: TA98, Metabolic Activation: NONE, Method: STANDARD PLATE.
Setting [4] is: Test System: AMES SALMONELLA TYPHIMURIUM, Strain/Indicator: TA100, Metabolic Activation: NONE, Method: STANDARD PLATE.

`[Ga]#[As]`: the mutagenic call was “inactive; negative” (Test System: AMES SALMONELLA TYPHIMURIUM, Strain/Indicator: TA97, Metabolic Activation: HAMSTER, LIVER, S-9, AROCLOR 1254 (10 OR 30%), Method: PREINCUBATION); “inactive; negative” (Test System: AMES SALMONELLA TYPHIMURIUM, Strain/Indicator: TA97, Metabolic Activation: NONE, Method: PREINCUBATION); “inactive; negative” (Test System: AMES SALMONELLA TYPHIMURIUM, Strain/Indicator: TA97, Metabolic Activation: RAT, LIVER, S-9, AROCLOR 1254 (10 OR 30%), Method: PREINCUBATION); “inactive; negative” (Test System: AMES SALMONELLA TYPHIMURIUM, Strain/Indicator: TA98, Metabolic Activation: HAMSTER, LIVER, S-9, AROCLOR 1254 (10%), Method: PREINCUBATION); “inactive; negative” (Test System: AMES SALMONELLA TYPHIMURIUM, Strain/Indicator: TA98, Metabolic Activation: HAMSTER, LIVER, S-9, AROCLOR 1254 (30%), Method: PREINCUBATION); “inactive; negative” under setting [1]. Also, the mutagenic call was “inactive; negative” (Test System: AMES SALMONELLA TYPHIMURIUM, Strain/Indicator: TA98, Metabolic Activation: RAT, LIVER, S-9, AROCLOR 1254 (10%), Method: PREINCUBATION); “inactive; negative” (Test System: AMES SALMONELLA TYPHIMURIUM, Strain/Indicator: TA98, Metabolic Activation: RAT, LIVER, S-9, AROCLOR 1254 (30%), Method: PREINCUBATION); “inactive; negative” (Test System: AMES SALMONELLA TYPHIMURIUM, Strain/Indicator: TA100, Metabolic Activation: HAMSTER, LIVER, S-9, AROCLOR 1254 (10%), Method: PREINCUBATION); “inactive; negative” (Test System: AMES SALMONELLA TYPHIMURIUM, Strain/Indicator: TA100, Metabolic Activation: HAMSTER, LIVER, S-9, AROCLOR 1254 (30%), Method: PREINCUBATION); “inactive; negative” under setting [2]; “inactive; negative” (Test System: AMES SALMONELLA TYPHIMURIUM, Strain/Indicator: TA100, Metabolic Activation: RAT, LIVER, S-9, AROCLOR 1254 (10%), Method: PREINCUBATION). Also, the mutagenic call reads like this: (Test System: AMES SALMONELLA TYPHIMURIUM, Strain/Indicator: TA100, Metabolic Activation: RAT, LIVER, S-9, AROCLOR 1254 (30%), Method: PREINCUBATION) “inactive; negative”; (Test System: AMES SALMONELLA TYPHIMURIUM, Strain/Indicator: TA102, Metabolic Activation: HAMSTER, LIVER, S-9, AROCLOR 1254 (5 OR 10%), Method: PREINCUBATION) “inactive; negative”; (Test System: AMES SALMONELLA TYPHIMURIUM, Strain/Indicator: TA102, Metabolic Activation: HAMSTER, LIVER, S-9, AROCLOR 1254 (30%), Method: PREINCUBATION) “inactive; negative”; (Test System: AMES SALMONELLA TYPHIMURIUM, Strain/Indicator: TA102, Metabolic Activation: NONE, Method: PREINCUBATION) “inactive; negative”; (Test System: AMES SALMONELLA TYPHIMURIUM, Strain/Indicator: TA102, Metabolic Activation: RAT, LIVER, S-9, AROCLOR 1254 (10%), Method: PREINCUBATION) “inactive; negative”; (Test System: AMES SALMONELLA TYPHIMURIUM, Strain/Indicator: TA102, Metabolic Activation: RAT, LIVER, S-9, AROCLOR 1254 (30%), Method: PREINCUBATION) “inactive; negative”. Further, the mutagenic call is “inactive; negative” (Test System: AMES SALMONELLA TYPHIMURIUM, Strain/Indicator: TA1535, Metabolic Activation: HAMSTER, LIVER, S-9, AROCLOR 1254 (10%), Method: PREINCUBATION); “inactive; negative” (Test System: AMES SALMONELLA TYPHIMURIUM, Strain/Indicator: TA1535, Metabolic Activation: HAMSTER, LIVER, S-9, AROCLOR 1254 (30%), Method: PREINCUBATION); “inactive; negative” (Test System: AMES SALMONELLA TYPHIMURIUM, Strain/Indicator: TA1535, Metabolic Activation: NONE, Method: PREINCUBATION); “inactive; negative” (Test System: AMES SALMONELLA TYPHIMURIUM, Strain/Indicator: TA1535, Metabolic Activation: RAT, LIVER, S-9, AROCLOR 1254 (10%), Method: PREINCUBATION); “inactive; negative” (Test System: AMES SALMONELLA TYPHIMURIUM, Strain/Indicator: TA1535, Metabolic Activation: RAT, LIVER, S-9, AROCLOR 1254 (30%), Method: PREINCUBATION).

Consider `Nc1ccc([N+](=O)[O-])cc1Cl`, for which the mutagenic call (End Point: IN VITRO CHROMOSOMAL ABERRATIONS, Test System: CHL CELLS, Metabolic Activation: RAT, LIVER, S-9, SODIUM PHENOBARBITAL AND 5,6-BENZOFLAVONE) is “active; positive (structural changes)”; the mutagenic call (End Point: IN VITRO MICRONUCLEUS, Test System: CHL/IU CELLS, Metabolic Activation: NONE) is “inactive; negative”; the mutagenic call under setting [1] is “active; positive”; the mutagenic call (Test System: AMES SALMONELLA TYPHIMURIUM, Strain/Indicator: TA98, Metabolic Activation: RAT, LIVER, S-9, KANECHLOR 500, Method: PREINCUBATION) was “active; positive”; the mutagenic call under setting [2] was “inactive; negative”; the mutagenic call (Test System: AMES SALMONELLA TYPHIMURIUM, Strain/Indicator: TA100, Metabolic Activation: RAT, LIVER, S-9, KANECHLOR 500, Method: PREINCUBATION) is “inactive; negative”. Besides, under “Test System: UDS RODENT HEPATOCYTES, Strain/Indicator: THY INCORP (NON-S-PHASE), Metabolic Activation: NONE, Method: AUTORADIOGRAPHY”, the mutagenic call is “inactive; negative”.

`c1ccc2scnc2c1`: the mutagenic call is, setting by setting: (Test System: MOUSE LYMPHOMA, Strain/Indicator: L5178Y (TK+/TK-), Metabolic Activation: NONE, Method: SUSPENSION/PLATE) “inactive; negative. reevaluation of results: negative”; (Test System: MOUSE LYMPHOMA, Strain/Indicator: L5178Y (TK+/TK-), Metabolic Activation: RAT, LIVER, S-9, AROCLOR 1254, Method: SUSPENSION/PLATE) “inactive; negative. reevaluation of results: negative”.

Consider `O=[N+]([O-])c1ccc2c(ccc3cc([N+](=O)[O-])ccc32)c1`, for which the mutagenic call is “active; positive” (Test System: AMES SALMONELLA TYPHIMURIUM, Strain/Indicator: TA98(1,8-DNP6), Metabolic Activation: NONE, Method: STANDARD PLATE); “active; positive” (Test System: AMES SALMONELLA TYPHIMURIUM, Strain/Indicator: TA98(NR), Metabolic Activation: NONE, Method: STANDARD PLATE); “active; positive” under setting [1]; “active; positive” under setting [3]; “inactive; negative” (Test System: AMES SALMONELLA TYPHIMURIUM, Strain/Indicator: TA98, Metabolic Activation: RAT, LIVER, S-9, PCB (10%), Method: PREINCUBATION); “active; positive” (Test System: AMES SALMONELLA TYPHIMURIUM, Strain/Indicator: TA7001, Metabolic Activation: NONE, Method: PREINCUBATION). The mutagenic call was “active; positive” (Test System: AMES SALMONELLA TYPHIMURIUM, Strain/Indicator: TA7002, Metabolic Activation: NONE, Method: PREINCUBATION); “active; positive” (Test System: AMES SALMONELLA TYPHIMURIUM, Strain/Indicator: TA7003, Metabolic Activation: NONE, Method: PREINCUBATION); “active; positive” (Test System: AMES SALMONELLA TYPHIMURIUM, Strain/Indicator: TA7004, Metabolic Activation: NONE, Method: PREINCUBATION); “active; positive” (Test System: AMES SALMONELLA TYPHIMURIUM, Strain/Indicator: TA7005, Metabolic Activation: NONE, Method: PREINCUBATION); “active; positive” (Test System: AMES SALMONELLA TYPHIMURIUM, Strain/Indicator: TA7006, Metabolic Activation: NONE, Method: PREINCUBATION).

`NC(=O)OC1CO1` (stereo unspecified): the mutagenic call (Test System: AMES SALMONELLA TYPHIMURIUM, Strain/Indicator: TA1535, Metabolic Activation: RAT, LIVER, MICROSOMES, Method: STANDARD PLATE) was “active; positive”.

Turning to `C=C1CC[C@H]2[C@@H](c3c(C)c(O)c4c(c31)C(=O)[C@@H](C)C4)C2(C)C`, the mutagenic call reads like this: under setting [3], “inactive; negative”; (Test System: AMES SALMONELLA TYPHIMURIUM, Strain/Indicator: TA98, Method: STANDARD PLATE) “inactive; negative”; under setting [4], “inactive; negative”; (Test System: AMES SALMONELLA TYPHIMURIUM, Strain/Indicator: TA100, Method: STANDARD PLATE) “inactive; negative”.

For the molecule `Cc1ccc(S(=O)(=O)OC[C@@H]2CO2)cc1`, the mutagenic call under setting [2] is “active; positive”; the mutagenic call under setting [4] is “active; positive”; the mutagenic call (Test System: AMES SALMONELLA TYPHIMURIUM, Strain/Indicator: TA100, Metabolic Activation: RAT, LIVER, S-9, PCB, Method: PREINCUBATION) is “active; positive”.
